Results on 4 molecules are retold here after patent US20080167188A1, “Herbicide Combinations Comprising Special Ketoenoles” (priority 2004, published 2008).

Holding throughout (format): in vivo
In experiment [1] the test system is PESGL. Put plainly: field trial, herbicidal activity against PESGL. The settings on record: 2 to 3 repetitions, highest efficacy of three assessment days, g of a.i./ha: Ex. A.5 20, Glufosinate 400, combination 20 + 400. How it is done:
(§1) The reported results originate from field trials carried out in 2 to 3 repetitions. The weed grasses or crops are sown. The activities are assessed on three days; what is reported are the highest efficacies.

The subject of experiment [2] is TRZAS. Put plainly: field trial, herbicidal activity against TRZAS. The following applies: 2 to 3 repetitions, highest efficacy of three assessment days, g of a.i./ha: Ex. A.5 20, Glufosinate 400, combination 20 + 400. How it is done: as §1
Experiment [3] concerns ALOMY. Description: field trial, herbicidal activity against ALOMY. The following applies: 2 to 3 repetitions, highest efficacy of three assessment days, g of a.i./ha: Ex. A.1 20, Metazachlor 1000, combination 20 + 1000. The method, then:
as §1

Experiment [4] deals with AGGRE. Description: field trial, herbicidal activity against AGGRE. The settings on record: 2 to 3 repetitions, highest efficacy of three assessment days, g of a.i./ha: Ex. A.1 20, Metazachlor 1000, combination 20 + 1000. The method, then: as §1
Experiment [5] has as its system BROSTE. Put plainly: field trial, herbicidal activity against BROSTE. The settings on record: 2 to 3 repetitions, highest efficacy of three assessment days, g of a.i./ha: Ex. A.1 20, Metazachlor 1000, combination 20 + 1000. The method, then: as §1

Take `CP(=O)(O)CCC(N)C(=O)O` (racemic) [Glufosinate (B4.2), 4-[hydroxy(methyl)phosphinoyl]-DL-homoalanine]: in experiment [1], the “% Activity PESGL” value is reported as 20%. The “% Activity TRZAS” value in experiment [2] is listed as 20%.

Regarding `CCc1cc(Cl)cc(OC)c1C1=C(O)C2(CCC(OC)CC2)NC1=O` (stereo not shown) [Ex. A.1], the “% Activity ALOMY” value in experiment [3] was found to be 42%. Further, the “% Activity AGGRE” value in experiment [4] is given as 60%. The “% Activity BROSTE” value in experiment [5] came to 35%.

As to `CCOC(=O)OC1=C(c2c(CC)cc(Cl)cc2OC)C(=O)NC12CCC(OC)CC2` (stereo not shown) [Ex. A.5], the “% Activity PESGL” value in experiment [1] worked out at 70%. In addition, the “% Activity TRZAS” value in experiment [2] is 69%.

With `Cc1cccc(C)c1N(Cn1cccn1)C(=O)CCl` [Metazachlor (B 3.20), 2-chloro-N-(2,6-dimethylphenyl)-N-(1H-pyrazol-1-ylmethyl)acetamide], the “% Activity ALOMY” value in experiment [3] is 28%. Also, the “% Activity AGGRE” value in experiment [4] is 10%. In addition, in experiment [5], the “% Activity BROSTE” value is reported as 45%.
